T/C data for 14 compounds are collected here from PubChem BioAssay AID328 (DTP/NCI, 2004).

SMILES strings stand for the structures. Values joined by “and” are separate entries in the source; they are usually repeats but may differ in a detail not shown here. Equal entries are not always repeated. Toxic doses and inconclusive results are not listed.

The test system of this test is BDF1 mice, P388 leukemia ip, median survival T/C. Kind of test: NCI In Vivo Anticancer Drug Screen. Data for tumor model P388 Leukemia (intraperitoneal) in B6D2F1 (BDF1) mice. The note with it: endpoint: median survival time, higher = longer survival. In short, it runs like this: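 Each value expresses how treatment altered survival: treated-mouse outcome over vehicle-mouse outcome, both groups bearing the transplanted tumour.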

Where [1] appears, read: dose: 50.0 mg/kg/injection, schedule: Q01DX009 (ip), vehicle: saline.
Setting [2] is: dose: 100.0 mg/kg/injection, schedule: Q01DX009 (ip), vehicle: saline.
Setting [3] is: dose: 200.0 mg/kg/injection, schedule: Q01DX009 (ip), vehicle: saline.
[4] abbreviates: dose: 12.5 mg/kg/injection, schedule: Q01DX009 (ip), vehicle: Klucel (hydroxypropylcellulose) (HPC).
The mark [5] stands for this setting: dose: 25.0 mg/kg/injection, schedule: Q01DX009 (ip), vehicle: Klucel (hydroxypropylcellulose) (HPC).
The mark [6] stands for this setting: dose: 100.0 mg/kg/injection, schedule: Q04DX003 (ip), vehicle: Klucel (hydroxypropylcellulose) (HPC).
Setting [7] is: dose: 400.0 mg/kg/injection, schedule: Q04DX003 (ip), vehicle: saline.
[8] abbreviates: dose: 50.0 mg/kg/injection, schedule: Q01DX009 (ip), vehicle: saline with Tween-80.
The mark [9] stands for this setting: dose: 50.0 mg/kg/injection, schedule: Q01DX009 (ip), vehicle: Klucel (hydroxypropylcellulose) (HPC).
[10] abbreviates: dose: 400.0 mg/kg/injection, schedule: Q01DX009 (ip), vehicle: Klucel (hydroxypropylcellulose) (HPC).

For `Cc1ncc(O)c(CO)c1O`, the T/C under setting [1] is 110 % of control; the T/C under setting [2] was 94 % of control; the T/C under setting [3] is 99 % of control; the T/C (dose: 400.0 mg/kg/injection, schedule: Q01DX009 (ip), vehicle: saline) is 107 % of control.

`Cc1ncc(CO)c(C2NOCc3ccc(Cl)cc32)c1O` (configuration not stated): the T/C reads like this: under setting [4], 104 % of control; under setting [5], 86 % of control; (dose: 25.0 mg/kg/injection, schedule: Q04DX003 (ip), vehicle: Klucel (hydroxypropylcellulose) (HPC)) 111 % of control; (dose: 50.0 mg/kg/injection, schedule: Q04DX003 (ip), vehicle: Klucel (hydroxypropylcellulose) (HPC)) 105 % of control; under setting [6], 122 % of control.

As for `C[C@@H]1C[C@@]2(C)[C@@H](CC[C@@H]3[C@@H]2CC[C@]2(C)OC(=O)CC[C@@H]32)CC1=O`, the T/C was 105 % of control (dose: 100.0 mg/kg/injection, schedule: Q04DX003 (ip), vehicle: alcohol); 95 % of control (dose: 200.0 mg/kg/injection, schedule: Q04DX003 (ip), vehicle: alcohol); 95 % of control and 110 % of control (dose: 264.0 mg/kg/injection, schedule: Q04DX003 (ip), vehicle: saline); 105 % of control under setting [7].

With `O=S(=O)(Nc1ccc(-c2ccccc2)cc1)c1ccccc1`, the T/C under setting [8] is 108 % of control; the T/C (dose: 100.0 mg/kg/injection, schedule: Q01DX009 (ip), vehicle: saline with Tween-80) was 101 % of control; the T/C (dose: 200.0 mg/kg/injection, schedule: Q01DX009 (ip), vehicle: saline with Tween-80) is 101 % of control; the T/C (dose: 400.0 mg/kg/injection, schedule: Q01DX009 (ip), vehicle: saline with Tween-80) is 106 % of control.

As for `CN=S(=O)(OCCCCCCCCCOS(=O)(=NC)c1ccc(C)cc1)c1ccc(C)cc1` (configuration not stated), the T/C by setting is: (dose: 12.5 mg/kg/injection, schedule: Q01DX009 (ip), vehicle: saline with Tween-80) 108 % of control; under setting [8], 117 % of control.

Consider `Clc1ncc(Br)c(Cl)n1`, for which the T/C (dose: 2.7 mg/kg/injection, schedule: Q01DX009 (ip), vehicle: Klucel (hydroxypropylcellulose) (HPC)) is 95 % of control; the T/C (dose: 4.1 mg/kg/injection, schedule: Q01DX009 (ip), vehicle: Klucel (hydroxypropylcellulose) (HPC)) is 95 % of control; the T/C (dose: 8.2 mg/kg/injection, schedule: Q01DX009 (ip), vehicle: Klucel (hydroxypropylcellulose) (HPC)) is 109 % of control; the T/C (dose: 8.3 mg/kg/injection, schedule: Q01DX009 (ip), vehicle: Klucel (hydroxypropylcellulose) (HPC)) was 100 % of control; the T/C under setting [4] is 100 % of control and 109 % of control; the T/C (dose: 13.75 mg/kg/injection, schedule: Q04DX003 (ip), vehicle: Klucel (hydroxypropylcellulose) (HPC)) is 104 % of control. Besides, the T/C is 100 % of control (dose: 18.0 mg/kg/injection, schedule: Q01DX009 (ip), vehicle: Klucel (hydroxypropylcellulose) (HPC)); 115 % of control (dose: 18.75 mg/kg/injection, schedule: Q01DX009 (ip), vehicle: Klucel (hydroxypropylcellulose) (HPC)); 100 % of control (dose: 27.5 mg/kg/injection, schedule: Q04DX003 (ip), vehicle: Klucel (hydroxypropylcellulose) (HPC)); 108 % of control (dose: 55.0 mg/kg/injection, schedule: Q04DX003 (ip), vehicle: Klucel (hydroxypropylcellulose) (HPC)); 108 % of control (dose: 80.0 mg/kg/injection, schedule: Q04DX003 (ip), vehicle: Klucel (hydroxypropylcellulose) (HPC)); 100 % of control (dose: 125.0 mg/kg/injection, schedule: Q04DX003 (ip), vehicle: Klucel (hydroxypropylcellulose) (HPC)).

Regarding `C(/C=C/C=C/Nc1ccc(N=Nc2ccccc2)cc1)=Nc1ccc(N=Nc2ccccc2)cc1`, the T/C runs as follows: (dose: 100.0 mg/kg/injection, schedule: Q04DX003 (ip), vehicle: saline) 90 % of control; (dose: 200.0 mg/kg/injection, schedule: Q04DX003 (ip), vehicle: saline) 104 % of control; under setting [7], 95 % of control.

For the compound `CCOc1cccc2c1C(=O)c1c(O)c3c(c(O)c1C2=O)C[C@@](O)(C(C)=O)C[C@@H]3OC1CC(N)C(O)C(C)O1` (some centres not stated), the T/C (dose: 6.25 mg/kg/injection, schedule: Q04DX003 (ip), vehicle: water) is 123 % of control and the T/C (dose: 50.0 mg/kg/injection, schedule: Q04DX003 (ip), vehicle: water) is 108 % of control.

As to `C[C@@H]1C[C@@]2(C)[C@@H](CC[C@@H]3[C@@H]2CC[C@]2(C)[C@@H](OC4CCCCO4)CC[C@@H]32)CC1=O` (some centres not stated), the T/C is 88 % of control under setting [5]; 92 % of control under setting [9]; 88 % of control and 100 % of control (dose: 100.0 mg/kg/injection, schedule: Q01DX009 (ip), vehicle: Klucel (hydroxypropylcellulose) (HPC)); 86 % of control and 91 % of control under setting [6]; 87 % of control and 100 % of control (dose: 200.0 mg/kg/injection, schedule: Q01DX009 (ip), vehicle: Klucel (hydroxypropylcellulose) (HPC)); 87 % of control and 95 % of control (dose: 200.0 mg/kg/injection, schedule: Q04DX003 (ip), vehicle: Klucel (hydroxypropylcellulose) (HPC)). In addition, the T/C runs as follows: under setting [10], 105 % of control; (dose: 400.0 mg/kg/injection, schedule: Q04DX003 (ip), vehicle: Klucel (hydroxypropylcellulose) (HPC)) 90 % of control and 91 % of control.

For the compound `NC(CSC(c1ccccc1)(c1ccccc1)c1ccc(CO)cc1)C(=O)O` (configuration not stated), the T/C reads like this: (dose: 3.0 mg/kg/injection, schedule: Q01DX009 (ip), vehicle: Klucel (hydroxypropylcellulose) (HPC)) 100 % of control; (dose: 6.0 mg/kg/injection, schedule: Q01DX009 (ip), vehicle: Klucel (hydroxypropylcellulose) (HPC)) 113 % of control; (dose: 12.0 mg/kg/injection, schedule: Q01DX009 (ip), vehicle: Klucel (hydroxypropylcellulose) (HPC)) 122 % of control; (dose: 12.0 mg/kg/injection, schedule: Q01DX009 (ip), vehicle: saline) 109 % of control; (dose: 12.0 mg/kg/injection, schedule: Q04DX003 (ip), vehicle: saline) 100 % of control; under setting [5], 150 % of control. Further, the T/C reads like this: (dose: 25.0 mg/kg/injection, schedule: Q01DX009 (ip), vehicle: saline) 159 % of control; (dose: 25.0 mg/kg/injection, schedule: Q04DX003 (ip), vehicle: saline) 103 % of control; under setting [9], 168 % of control; under setting [1], 163 % of control; (dose: 50.0 mg/kg/injection, schedule: Q04DX003 (ip), vehicle: saline) 111 % of control; (dose: 75.0 mg/kg/injection, schedule: Q01DX009 (ip), vehicle: Klucel (hydroxypropylcellulose) (HPC)) 159 % of control. Besides, the T/C (dose: 150.0 mg/kg/injection, schedule: Q01DX009 (ip), vehicle: Klucel (hydroxypropylcellulose) (HPC)) was 154 % of control; the T/C (dose: 300.0 mg/kg/injection, schedule: Q01DX009 (ip), vehicle: Klucel (hydroxypropylcellulose) (HPC)) was 259 % of control; the T/C under setting [10] was 272 % of control; the T/C under setting [7] was 155 % of control.

As for `CC1(C)C2CC34CCCN3C(=O)C2(CC12Nc1ccccc1C2=O)NC4=O` (configuration not stated), the T/C is, setting by setting: under setting [1], 102 % of control; under setting [2], 109 % of control; under setting [3], 113 % of control.

Turning to `CCn1c(C)nc2cc(C(N)=O)ccc21`, the T/C by setting is: (dose: 50.0 mg/kg/injection, schedule: Q04DX003 (ip), vehicle: saline with Tween-80) 95 % of control; (dose: 100.0 mg/kg/injection, schedule: Q04DX003 (ip), vehicle: saline with Tween-80) 90 % of control; (dose: 200.0 mg/kg/injection, schedule: Q04DX003 (ip), vehicle: saline with Tween-80) 113 % of control.

Consider `CC(CC(C)(C)C)C(=O)CCC(C)(C)C` (configuration not stated), for which the T/C runs as follows: (dose: 100.0 mg/kg/injection, schedule: Q01DX001 (ip), vehicle: saline with Tween-80) 104 % of control; (dose: 200.0 mg/kg/injection, schedule: Q01DX001 (ip), vehicle: saline with Tween-80) 100 % of control; (dose: 400.0 mg/kg/injection, schedule: Q01DX001 (ip), vehicle: saline with Tween-80) 109 % of control.

With `COc1ccc2cc(OC)ccc2c1`, the T/C is 100 % of control (dose: 100.0 mg/kg/injection, schedule: Q01DX001 (ip), vehicle: saline sonified); 100 % of control (dose: 200.0 mg/kg/injection, schedule: Q01DX001 (ip), vehicle: saline sonified); 100 % of control (dose: 400.0 mg/kg/injection, schedule: Q01DX001 (ip), vehicle: saline sonified).
